From patent US6099857A, “Cell membrane fusion composition and method” (Washington University, priority 1998, dated 2000)
Values belong to the molecule of their own block, whether it stands above or below them.

Legend:
[1] = NBD-PE/Rh-PE lipid-mixing fusion assay with PS SUVs; conditions: equal molar mixture with PC; NBD-PE dequenching
Protocol: In the NBD-PE/Rh-PE assay detailed in Example 2B, NBD-PE (N-(7-nitrobenz-2-oxa-1,3-diazol-4-yl)-1,2-dihexadecanoyl-sn-glycerol-3-phosphoethanolamine), and Rh-PE are incorporated into PS SUV's and the vesicles are mixed with test vesicles. Vesicle fusion is followed by the change in fluorescence emission at 530 nm, after […] at 464 nm.
This assay was performed by preparing phosphatidylserine SUVs containing 1.8% Rh-PE and 1.2% NBD-PE and adding an equimolar amount of unlabelled PC/PE vesicles pursuant to (Struck, et al. (1981); and Hoekstra, 1982). Fusion was monitored by NBD-PE fluorescence at 530 nm after excitation at 464 nm. The 100% fusion level was assessed by preparing lipid vesicles composed of 46.5% PS, 25% PC, 25% PE, 0.9% Rh-PE, and 0.6% NBD-PE and subsequently quantifying fluorescence intensity.
Since Rh-PE partially quenches NBD-PE fluorescence by resonance energy transfer at the initial concentrations used in these experiments, membrane fusion results in an increase in NBD-PE fluorescence as available membrane surface area increases.
To verify the results obtained with the R18 fusion assay, a second lipid-mixing assay utilizing NBD-PE and Rh-PE was used. […]

[2] = R18 assay of calcium-induced fusion of SUVs of ternary PS/PC/ethanolamine glycerophospholipid mixtures
[3] = Breakdown of lipids in vesicles during fusion studies (TLC, straight-phase HPLC, 3H label); assay type: physicochemical; conditions: within the time frame of the assay
Description: To verify the differences in observed fusion rates were not due to selective breakdown of one subclass of ethanolamine glycerophospholipid, aliquots of lipid vesicles employed in the fusion studies were extracted by the method of Bligh and Dyer and analyzed by TLC and straight-phase HPLC. No lysophospholipids or other contaminants were detected within the time frame of the assay. For higher sensitivity detection, 16:0-18:1 plasmenyl ethanolamine was synthesized with a ^3 H label on the sn-2 oleoyl group. This label was added to a liposome preparation containing unlabeled PC and PE.

[4] = biological target: T1, GAPDH isoform (membrane fusion protein) (Oryctolagus cuniculus, UniProt P46406); assay: Protein-catalyzed membrane fusion of physiologically-modeled SUVs (R18, stopped flow); assay type: biochemical, rabbit; conditions: for inhibition of membrane fusion activity: GAPDH isoform-catalyzed fusion of physiologically-modeled SUVs
T1 construct: from tissue; host or cells: rabbit brain (cytosol; DE-52 void volume, HiLoad SP Sepharose, GTP-agarose and Mono Q fractions)
Protocol: Rabbit brain cytosol was prepared and loaded onto a previously equilibrated DE-52 column. The column was developed with a linear NaCl gradient (0-400 Mm NaCl) and column eluents were assayed for their ability to catalyze membrane fusion utilizing physiologically-modeled small unilamellar vesicles (SUVs) as described in "Materials and Methods". Vesicles were comprised of 16:0-18:1 phosphatidylcholine (27%), 16:0-18:1 phosphatidylserine (6%), cholesterol (40%) and 27% of each of the following ethanolamine glycerophospholipids: 18:0-20:4 plasmenylethanolamine; 16:0-18:1 plasmenylethanolamine; 18:0-20:4 phosphatidylethanolamine; or 16:0-18:1 phosphatidylethanolamine . (----), uv absorbance at 280 nm; (----), NaCl gradient.
Physiologically-modeled SUVs were prepared (concentration=200 μM). The other chamber contained the Pi3 /NAD^+ eluent from GTP-agarose chromatography (0.004 mg/ml) which was previously incubated with (D)-glyceraldehyde 3-phosphate at the indicated concentrations for 30 seconds at 37° C. The rates of membrane fusion from four separate determinations of two preparations were averaged and expressed as a percentage of maximum fusion.
Physiologically-modeled small unilamellar vesicles consisting of 16:0-18:1 phosphatidylcholine (27%), ethanolamine glycerophospholipid (27%), 16:0-18:1 phosphatidylserine (6%) and cholesterol (40%) were prepared (final lipid concentration of 200 μM) and placed in one chamber of a stopped-flow apparatus. Aliquots of the HiLoad SP Sepharose column eluent (protein concentration=0.002 mg/ml) were placed in the other chamber, samples were rapidly mixed in a stopped flow apparatus and membrane fusion was quantified. Ethanolamine glycerophospholipids included 100% plasmenyl ethanolamine (A) 75% plasmenyl ethanolamine and 25% PE (B); 50% plasmenyl ethanolamine and 50% PE (C); and 25% plasmenyl ethanolamine and 75% PE (D;
Vesicles were composed of 16:0-18:1 PC/18:0-20:4 plasmenyl ethanolamine/cholesterol (27/27/40 mole percent) and varying mole percentages of phosphatidylserine (6% phosphatidylserine (A), 12% phosphatidylserine (B), 3% phosphatidylserine (C) or 0% phosphatidylserine (D)).
Physiologically-modeled SUVs containing phosphatidylcholine/18:0-20:4 plasmenylethanolamine/phosphatidylserine (45/45/10 mole ratio) and selected mole percentages of cholesterol (i.e., 40% cholesterol (A), 20% cholesterol (B), or 0% cholesterol (C)) were placed in one chamber of a stopped-flow apparatus. The other chamber contained aliquots of the active fraction from GTP-agarose chromatography (i.e., 20 mM tripolyphosphate/10 mM NAD^+ (Pi3 /NAD^+)), at a protein concentration of 0.004 mg/ml. Samples were rapidly mixed and membrane fusion was quantified. Results represent the average of six recordings from two independent preparations expressed as a percentage of maximal fusion.
The isolation of a GAPDH isoform that has been discovered to catalyze vesicle fusion, in accordance with the invention, is described in Example 5. Briefly, a […] homogenate was centrifuged at high speed to produce a cytosol. Dialyzed cytosol was fractionated on a DE-52 column, and the fractions were assayed in a vesicle fusion assay. The lipid vesicles that were used in the assay were composed of 27 mole percent of […], 6 mole percent PS, 40 mole percent cholesterol, and 27 mole percent […]. These vesicles show little measurable self-fusion activity, as evidenced by change in fluorescence in an R18 assay (half of the vesicles labeled with R18). […] The reasons underlying the cryptic nature of this activity in crude cytosol have been elaborated, showing that the cytosol contains a potent endogenous protein inhibitor of fusion activity. […]

[5] = biological target: T2, GAPDH (Oryctolagus cuniculus, UniProt P46406); assay: Glyceraldehyde 3-phosphate dehydrogenase activity (spectrophotometric, NADH); assay type: biochemical, rabbit
T2 construct: Column eluents were assayed for GAPDH activity and membrane fusion activity; from tissue; host or cells: rabbit brain (column eluents of the purification)
Protocol: The activity of GAPDH was measured spectrophotometrically utilizing modifications of the methods of Cori, .backslash.at al. (1948) and Steck, et al. (1973). Briefly, sample was added to a 1 cm path-length semi-micro cuvette containing 50 mM triethanolamine (pH 7-6), sodium arsenate (50 mM) (pH 8.8), 2.4 mM glutathione (reduced), 0.5 mM NAD, and water in a final volume of 990 .backslash.pl. After establishing a baseline (1 min), the reaction was initiated with 10 μl of 10 mM D-glyceraldehyde 3-phosphate (prepared according to Sigma product bulletin G-8007) and absorbance at 340 nm was measured for 5 minutes. Units of GAPDH activity represent the mass (μmol) of D-glyceraldehyde 3-phosphate converted per minute. The mass of NADH generated was calculated utilizing ε=[…].

T1 sequence (P46406 2-333 limits assumed): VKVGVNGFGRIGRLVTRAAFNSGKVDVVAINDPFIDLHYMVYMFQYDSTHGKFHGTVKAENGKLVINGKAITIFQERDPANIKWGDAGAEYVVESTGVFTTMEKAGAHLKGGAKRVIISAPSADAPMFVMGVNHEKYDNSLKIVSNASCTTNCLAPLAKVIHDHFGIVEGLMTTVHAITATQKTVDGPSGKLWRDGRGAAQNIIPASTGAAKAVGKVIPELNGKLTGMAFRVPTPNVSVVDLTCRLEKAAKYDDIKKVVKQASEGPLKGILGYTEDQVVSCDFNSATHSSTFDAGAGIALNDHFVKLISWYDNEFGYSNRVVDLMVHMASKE
T2 sequence (P46406 2-333 limits assumed): as above

Molecule: CCCCCCCC/C=C\CCCCCCCC(=O)O[C@H](CO/C=C\CCCCCCCCCCCCCC)COP(=O)(O)OCCN [16:0-18:1 plasmenyl ethanolamine]
rate of fusion to PS SUVs relative to PC/16:0-18:1 phosphatidylethanolamine vesicles [1]: three times more rapidly | initial rate of membrane fusion relative to vesicles with 16:0-18:1 phosphatidylethanolamine ([2]; 45% PC/45% PE/10% PS vesicles): significantly greater | fusogenicity relative to vesicles containing 16:0-18:1 phosphatidylethanolamine ([2]; POPS/POPC/ethanolamine glycerophospholipid (1:1:1) SUVs): six times more fusogenic | breakdown of lipid during the fusion procedures [3]: No significant generation of radiolabeled fatty acid or lysophospholipid

Molecule: O=C[C@H](O)COP(=O)(O)O [D-glyceraldehyde 3-phosphate]
inhibition of membrane fusion activity [4]: inhibited

Molecule: O=C(O)c1cc(SSc2ccc([N+](=O)[O-])c(C(=O)O)c2)ccc1[N+](=O)[O-] [DTNB]
inactivation of membrane fusion-catalyzing activity ([4]; 1 mM for 30 minutes at 37° C., void volume activity): inactivated

Molecule: CCN1C(=O)C=CC1=O [N-ethylmaleimide]
inhibition of membrane fusion-catalyzing activity ([4]; 1 mM for 60 minutes at 37° C., void volume activity): not inhibited

Now from value to molecule:

inhibition of membrane fusion activity [4]: failed to inhibit | inhibition of GAPDH enzyme activity [5]: maximally inhibited
Molecule: CC(C)[C@H]1CC[C@@]2(CO2)[C@H]2C(=O)OCC(C(=O)O)=C[C@H]12 [Koningic acid]

time for catalyzed fusion of one pair of vesicles (on average) ([4]; calculated, protein 4 μg/ml, assumes ≈1000 lipid molecules per vesicle and tetramer): 1 ms | selectivity of membrane fusion activity for vesicles containing plasmenylethanolamine compared with phosphatidylethanolamine ([4]; each stage of the purification procedure): highly selective
Molecule: GAPDH isoform: 38 kDa isoform of glyceraldehyde-3-phosphate dehydrogenase purified from rabbit brain cytosol that catalyzes vesicle fusion
